Among the data in patent US8829007B2 (priority 2009, dated 2014) are IC50 and EC50 values, retold here.

For test [1], the system named is influenza A virus (A/PR/8/34). As to the kind of experiment: microbe, parasite or virus in culture. Format: cell-based. The settings on record: class symbols, read-out: IC50 (mean all).
The test system of test [2] is A/PR/8/34 influenza virus. As to the kind of experiment: microbe, parasite or virus in culture. Format: cell-based. Conditions: class symbols, read-out: EC50 (mean all).
Where [3] appears, read: Influenza A virus, PR/8, MDCK, MDCK cells infected with A/PR/8/34, survival of infected cells.
The mark [4] stands for this setting: Influenza A virus, PR/8, MDCK, MDCK cells infected with A/PR/8/34, replication of influenza virus (viral RNA, bDNA).
Setting [5] is: MDCK cells infected with A/PR/8/34, survival of infected cells.
[6] abbreviates: MDCK cells infected with A/PR/8/34, replication of influenza virus (viral RNA, bDNA).
Setting [7] is: Influenza A virus, PR/8, MDCK, CPE assay, A/PR/8/34 infected MDCK cells.
The mark [8] stands for this setting: Influenza A virus, PR/8, MDCK, bDNA assay, A/PR/8/34 influenza virus replication in MDCK cells.

Read-outs that look alike come from different tables or passages of the source. Some results are limits rather than exact numbers.

A word on the IC50: it is the midpoint of a concentration-inhibition curve. A word on the EC50: it is the midpoint of the concentration-response curve. For the compound `COC(=O)N[C@@H]1CCC[C@H](Nc2nc(-c3c[nH]c4ncc(Cl)cc34)ncc2F)C1` [Compound 570, methyl N-[(1R,3S)-3-[[2-(5-chloro-1H-pyrrolo[2,3-b]pyridin-3-yl)-5-fluoro-pyrimidin-4-yl]amino]cyclohexyl]carbamate], the IC50 in test [1] (setting [3]) was below 5 µM. Further, the EC50 in test [2] (setting [4]) is below 5 µM.

Consider `CC1(O)CCC[C@H](Nc2nc(-c3c[nH]c4ncc(Cl)cc34)ncc2F)C1` (some centres unmarked) [Compound 571], for which the IC50 in test [1] (setting [5]) is below 5 µM. For the same compound, the EC50 in test [2] (setting [6]) is below 5 µM.

For the compound `CC1(O)CCC[C@H](Nc2nc(-c3c[nH]c4ncc(Cl)cc34)ncc2F)C1` (some centres unmarked) [Compound 572], the IC50 in test [1] (setting [5]) is below 5 µM. Also, the EC50 in test [2] (setting [6]) was below 5 µM.

As for `O=C(O)[C@@H]1CCCC[C@@H]1Nc1nc(-c2c[nH]c3ncc(Cl)cc23)ncc1F` [Compound 578, (1R,2S)-2-(2-(5-chloro-1H-pyrrolo[2,3-b]pyridin-3-yl)-5-fluoropyrimidin-4-ylamino)cyclohexanecarboxylic acid], in test [1] (setting [3]), the IC50 is below 5 µM. Further, in test [2] (setting [4]), the EC50 is below 5 µM.

As for `OC[C@@H](O)CN1CCCC(Nc2nc(-c3c[nH]c4ncc(Cl)cc34)ncc2F)C1` (some centres unmarked) [Compound 587], the IC50 in test [1] (setting [3]) was below 5 µM. For the same compound, in test [2] (setting [4]), the EC50 is below 5 µM.

With `COCC(=O)N[C@@H]1CCC[C@H](Nc2nc(-c3c[nH]c4ncc(Cl)cc34)ncc2F)C1` [Compound 591, N-[(1R,3S)-3-[[2-(5-chloro-1H-pyrrolo[2,3-b]pyridin-3-yl)-5-fluoro-pyrimidin-4-yl]amino]cyclohexyl]-2-methoxy-acetamide], the IC50 in test [1] (setting [3]) is below 5 µM. In test [2] (setting [4]), the EC50 is below 5 µM.

As for `Fc1cnc(-c2c[nH]c3ncc(Cl)cc23)nc1NC1CCCN(Cc2cnc[nH]2)C1` (centres unmarked) [Compound 594, N-(1-((1H-imidazol-5-yl)methyl)piperidin-3-yl)-2-(5-chloro-1H-pyrrolo[2,3-b]pyridin-3-yl)-5-fluoropyrimidin-4-amine], the IC50 in test [1] (setting [3]) was below 5 µM. Further, the EC50 in test [2] (setting [4]) is below 5 µM.

As to `COCCN1CCCC(Nc2nc(-c3c[nH]c4ncc(Cl)cc34)ncc2F)C1` (centres unmarked) [Compound 595], the IC50 in test [1] (setting [7]) was below 5 µM. Also, the EC50 in test [2] (setting [8]) was below 5 µM.

As to `CC(C)(C(N)=O)N1CCC[C@H](Nc2nc(-c3c[nH]c4ncc(Cl)cc34)ncc2F)C1` [Compound 598], the IC50 in test [1] (setting [7]) is below 5 µM. In test [2] (setting [8]), the EC50 was below 5 µM.

For `CNC(=O)C(C)(C)N1CCC[C@H](Nc2nc(-c3c[nH]c4ncc(Cl)cc34)ncc2F)C1` [Compound 599], the IC50 in test [1] (setting [7]) was below 5 µM. In addition, the EC50 in test [2] (setting [8]) is below 5 µM.

Regarding `CN(C)C(=O)C(C)(C)N1CCC[C@H](Nc2nc(-c3c[nH]c4ncc(Cl)cc34)ncc2F)C1` [Compound 600], the IC50 in test [1] (setting [7]) is below 5 µM. In test [2] (setting [8]), the EC50 was below 5 µM.

On to `COCCNC(=O)C(C)(C)N1CCC[C@H](Nc2nc(-c3c[nH]c4ncc(Cl)cc34)ncc2F)C1` [Compound 601], for which the IC50 in test [1] (setting [7]) is below 5 µM. The EC50 in test [2] (setting [8]) was below 5 µM.

In the case of `CC(C)(C(=O)NC1CC1)N1CCC[C@H](Nc2nc(-c3c[nH]c4ncc(Cl)cc34)ncc2F)C1` [Compound 602], the IC50 in test [1] (setting [7]) was below 5 µM. The EC50 in test [2] (setting [8]) is below 5 µM.

As for `NC(=O)C(O)CN1CCCC(Nc2nc(-c3c[nH]c4ncc(Cl)cc34)ncc2F)C1` [Compound 603, 3-((S)-3-((2-(5-chloro-1H-pyrrolo[2,3-b]pyridin-3-yl)-5-fluoropyrimidin-4-ylamino)piperidin-1-yl)-2-hydroxypropanamide], the IC50 in test [1] (setting [7]) is below 5 µM. In test [2] (setting [8]), the EC50 was below 5 µM.

`O=C(O)C1CNCCC1Nc1nc(-c2c[nH]c3ncc(Cl)cc23)ncc1F` (centres unmarked) [Compound 605]: the IC50 in test [1] (CPE assay, A/PR/8/34 infected MDCK cells) was above 10 µM. Besides, in test [2] (bDNA assay, A/PR/8/34 influenza virus replication in MDCK cells), the concentration giving a half-maximal response (EC50) is above 3.3 µM.

Consider `CNC(=O)C(C)N1CCCC(Nc2nc(-c3c[nH]c4ncc(Cl)cc34)ncc2F)C1` [Compound 606, 2-((S)-3-((2-(5-chloro-1H-pyrrolo[2,3-b]pyridin-3-yl)-5-fluoropyrimidin-4-ylamino)piperidin-1-yl)-N-methylpropanamide], for which, in test [1] (setting [7]), the IC50 is below 5 µM. The concentration for a half-maximal effect (EC50) in test [2] (setting [8]) is below 5 µM.
